Laboratory results reported in patent US10548935B2, “Composition and method for preventing, reducing, alleviating or treating idiopathic vomiting” (Mars, Incorporated, priority 2013, dated 2020).
Structures can show the parent of a compound that is named as a salt.

Key:
[1] = Cell toxicity
[2] = target: T1, h5HT3A receptor (Homo sapiens, UniProt P46098); experiment: Assays for screening 5-HT3a receptor inhibitors (FLIPR calcium assay or aequorin-assisted serotonin receptor assay; dosage response curves); assay type: cell-based
T1 construct: expressed in transfected cells
T1 sequence (P46098 24-478): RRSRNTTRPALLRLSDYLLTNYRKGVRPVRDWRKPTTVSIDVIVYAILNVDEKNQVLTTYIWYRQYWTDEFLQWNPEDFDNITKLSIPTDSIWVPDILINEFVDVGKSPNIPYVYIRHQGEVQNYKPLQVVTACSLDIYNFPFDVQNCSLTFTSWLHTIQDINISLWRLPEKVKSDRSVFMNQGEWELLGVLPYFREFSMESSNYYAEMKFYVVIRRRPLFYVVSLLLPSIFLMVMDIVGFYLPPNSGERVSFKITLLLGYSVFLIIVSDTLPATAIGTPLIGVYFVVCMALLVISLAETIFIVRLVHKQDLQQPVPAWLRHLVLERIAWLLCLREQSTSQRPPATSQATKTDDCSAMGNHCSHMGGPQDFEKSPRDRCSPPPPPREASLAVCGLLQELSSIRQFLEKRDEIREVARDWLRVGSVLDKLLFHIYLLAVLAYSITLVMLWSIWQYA
Text: Various known high through-put screening assays can be used to determine the inhibitory effects of a material on the 5-HT3a receptors.
Due to activation of 5HT3 receptor following calcium and sodium influx and the subsequent rapid intracellular calcium and sodium increase, a calcium indicator (e.g., Fluo-4 AM) or a sodium dye can therefore be readily used to detect influx Ca^+2 or Na^+ signal using the Flourometric Imaging Plate Reader (FLIPR) assay to identify agonists or antagonists of 5-HT3a receptors.
The 5-HT3a FLIPR assay can specifically be conducted by the following steps. First, […] (human embryonic kidney) cells stably expressed with h5HT3A receptor are grown in 16-18 ml growth medium in a 75 cm^2 flask for 2-3 days at 37° C. in a mammalian cell culture incubator with 5% CO2 and 90% humidity. The growth medium may contain, for example, DMEM/F12 (1:1, Invitrogen 11039) supplemented with 10% FBS (fetal bovine serum), 100 μg/ml Antibiotic/Antimycotic, and 150 ug/ml G418. The cell medium is then transferred to a 50 ml tube, and the cells are washed with 10 ml PBS. Subsequently, 2 ml of 0.05% Trypsin-EDTA is added to detach cells, and the above cell medium is added back to flask to inactivate trypsin. Next, the cells are transferred back to the above 50 ml tube, which is centrifuged at 850 rpm for 3 minutes to remove medium. The cells obtained from centrifugation are then re-suspended with growth medium at 1-1.5 ml per flask cells. One vial of Fluo-4 AM (calcium indicator, 50 ug) is subsequently dissolved with 20 ul of Pluronic F-127, and 10 ul of Fluo-4 AM solution per flask cells is added (1 vial of Fluo-4 AM solution, 20 ul, is good for 2 flask of cells). The cells are then stained with Fluo-4 AM for 30 min at room temperature with gently shaking on a shaker, followed by addition of 45 ml of the assay buffer [HBSS with CaCl2 and MgCl2 (Invitrogen 14025), 20 mM HEPES, pH7.2] to wash cells once. Centrifugation is carried out once more at 850 rpm for 3 minutes to remove assay buffer. The resulting cell pellet is again re-suspended in Assay buffer (per flask cells with 18-20 ml assay buffer). Ninety microliters of cells (50K cells/well) is loaded in the 96-well plates that are pre-loaded with the compounds to be tested (10 ul of 1 mM test materials, the final concentration of the test materials will be 100 uM). The plates are placed at room temperature for 15-30 min in dark and then transferred to FLIPR-384 instrument (Molecular Devices). […] The calcium signal of the test plates is finally recorded by the FLIPR program. The average and standard deviations are calculated using Excel, and the background (buffer) is subtracted. The percentage (%) inhibition is then calculated as
[formula] A test material will be considered as having an inhibitory effect against the 5-HT3a receptor if the percentage inhibition calculated is greater than 40%.
Aequorin is a photo-protein originating from the Jellyfish Aequorea Victoria. It is initially translated as an apo-enzyme requiring the hydrophobic group coelenterazine to initiate the conversion to aequorin. Upon binding of calcium, the coelenterazine is oxidized by aequorin into coelenteramide (BFP) resulting in the emission of blue light and CO2. Therefore, it is particularly useful for visualizing or detecting influx Ca^+2 signal.
After 18-24 h of culture, the cells are detached gently by flushing with their cell culture medium. Washing with an additional 10 mLs of cell culture media will ensure that optimum number of cells is captured. The cells are then centrifuged at 150×g, counted and re-suspended at 1×10^6 cells/mL in BSA medium [DMEM/Ham's F12 (with 15 mM HEPES, L-glutamine, without phenol red) culture medium (Invitrogen, Cat. No. 11039-021)+10% protease-free BSA (Sigma Aldrich, Cat. No. A9205) in H2O with a final BSA concentration of 0.1%] in a Falcon tube. Coelenterazine is added at a final concentration of 5 μM in assay medium.

[3] = target: T2, NK-1 receptor (Homo sapiens, UniProt P25103); experiment: Tango GPCR cell-based assay, TACR1-bla U2OS cells, NK-1 receptor inhibitors; settings: 1 nM SAR9 Substance P agonist
T2 construct: host or cells: U2OS (Tango TACR1-bla)
Protocol: Various known high through-put screening assays can also be used to determine the inhibitory effects of a material on the NK-1 receptors.
One exemplary assay is the Tango™ G-Protein Coupled Receptors (GPCR) cell-based assays by Invitrogen. First, TACR1-bla U2OS cells (from Invitrogen) are cultured in McCoy's medium. The cultured cells are then plated in DMEM into 96-well plates (15,125 cells/well in 90 uL/well). After 16-24 hours, the cells are treated with test materials or positive control antagonist (which is 100 nM Aprepitant) and then incubated for 30-60 minutes at 37° C. in 5% CO2. Subsequently, the cells are treated with 1 nM SAR9 Substance P agonist and incubated again for 5 hours at 37° C. in 5% CO2. The plates are removed from the incubator and equilibrated at room temperature for 15 minutes. During the equilibration step, the LiveBlazer substrate detection solution (from Invitrogen) is prepared. Six times of substrate mixture is added to each well, followed by incubating the plates in the dark at room temp for 2 hours. The plates are read by the Envision microplate reader in 2 channels using the “Geneblazer 451” protocol, which include a blue channel (Excitement at 405 and Emission at 460) and a green channel (Excitement at 405 and Emission at 535).
FIGS. 45-70 show the NK-1 dosage response curves of compounds described hereinabove with high NK-1 inhibitory effect.

T2 sequence (P25103 whole entry): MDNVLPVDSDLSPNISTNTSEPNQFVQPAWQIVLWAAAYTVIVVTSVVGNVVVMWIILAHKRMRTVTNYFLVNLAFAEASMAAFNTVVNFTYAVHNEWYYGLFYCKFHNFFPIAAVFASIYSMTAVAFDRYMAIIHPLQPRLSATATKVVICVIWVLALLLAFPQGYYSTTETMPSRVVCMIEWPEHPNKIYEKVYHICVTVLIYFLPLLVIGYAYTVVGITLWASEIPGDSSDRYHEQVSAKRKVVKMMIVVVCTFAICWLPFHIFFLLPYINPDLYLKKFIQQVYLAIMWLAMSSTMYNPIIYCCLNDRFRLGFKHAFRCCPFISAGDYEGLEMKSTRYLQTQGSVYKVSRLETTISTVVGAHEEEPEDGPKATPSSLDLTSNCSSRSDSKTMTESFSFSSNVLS

Compound | cell toxicity [1] | 5-HT3a receptor inhibitory effect [2] | NK-1 receptor inhibitory effect [3]
OCCCCCCCCCCCCCCO [1,14-Tetradecanediol] | little or no | surprisingly high | 
Cc1c(O)ccc(O)c1C [2,3-dimethyl-1,4-benzenediol] | little or no | surprisingly high | 
CCCCCCCC1CC(C)OC1=O (centres unmarked) [3-heptyldihydro-5-methyl-2(3H)-furanone] | little or no | surprisingly high | 
C[C@@H]1CC[C@H]2C(C)(C)[C@H]3C[C@@]12CC[C@@]3(C)O [(+)-cedrol] | little or no | surprisingly high | 
CCCCCC(=Cc1ccccc1)CO [Alpha-amylcinnamyl alcohol] | little or no | surprisingly high | 
CC(=O)/C=C/C1C(C)=CCCC1(C)C (stereo not drawn) [Alpha-lonone] | little or no | surprisingly high | 
CC(=O)C=Cc1ccccc1 [Benzylidenacetone] |  |  | surprisingly high
COc1ccc(-c2coc3cc(O)cc(O)c3c2=O)cc1 [Biochanin A] | little or no | surprisingly high | 
CC(C)=CCC[C@](C)(O)C1CC=C(C)CC1 (some centres unmarked) [Bisabolol] | little or no | surprisingly high | 
C=C1CC[C@H](O)C/C1=C/C=C1\CCC[C@]2(C)[C@@H]([C@H](C)CCCC(C)C)CC[C@@H]12 [Cholecalciferol VD3, Cholecalciferol] |  | surprisingly high | 
c1ccc(CCCc2ccccn2)cc1 [Cortex pyridine, 2-(3-phenylpropyl)pyridine] | little or no | surprisingly high | 
CCCCCCCC1CCCC(=O)O1 (centres unmarked) [Delta-dodecalactone] | little or no | surprisingly high | 
CCCCCCCCCC1CCCC(=O)O1 (centres unmarked) [Delta-tetradecalactone] | little or no | surprisingly high | 
CC/C=C\C/C=C\C/C=C\C/C=C\C/C=C\CCCC(=O)O [Eicosapentaenoic acid] | little or no |  | 
CCOc1ccc2c(c1)C(C)=CC(C)(C)N2 [Ethoxyquin] | little or no | surprisingly high | 
CC(C)=CCCC(C)=CCCC(C)=CC=O [Farnesal] | little or no | surprisingly high | 

Compound | cell toxicity [1] | 5-HT3a receptor inhibitory effect [2] | NK-1 receptor inhibitory effect [3]
O=c1cc(-c2ccccc2)oc2ccccc12 [Flavone] | little or no | surprisingly high | 
CCCCCCCCC1CCC(=O)O1 (centres unmarked) [Gamma-dodecalactone] | little or no | surprisingly high | 
CC1=C(CCC(=O)O)c2cc3[nH]c(cc4nc(cc5[nH]c(cc1n2)c(C)c5C(C)O)C(C)=C4C(C)O)c(C)c3CCC(=O)O (centres unmarked) [Hematoporphyrin dihydrochloride] | little or no |  | 
CC(C)[C@@H]1CC[C@@H](C)C[C@H]1OCC(O)CO (some centres unmarked) [Menthoxypropanediol] |  | surprisingly high | 
CCCCCC1C(=O)CCC1CC(=O)OC (centres unmarked) [Methyl dihydrojasmonate] | little or no | surprisingly high | 
CCCOC(=O)c1ccc(O)cc1 [N-propyl-4-hydroxybenzoate] |  | surprisingly high | 
CCCCCCCCC(=O)NCc1ccc(O)c(OC)c1 [Nonivamide] | little or no | surprisingly high | 
C=C(C)[C@@H]1CCC2=CC(=O)C[C@@H](C)[C@]2(C)C1 [Nootkatone] | little or no | surprisingly high | 
CCCCCC/C=C\CCCCCCCC(=O)O [Palmitoleic acid] | little or no | surprisingly high | 
CCCCCCCCCCC/C=C\CCCCC(=O)O [Petroselinic acid] | little or no | surprisingly high | 
O=C(CCc1ccc(O)cc1)c1c(O)cc(O)cc1O [Phloretin] | little or no | surprisingly high | 
O=C(/C=C/C=C/c1ccc2c(c1)OCO2)N1CCCCC1 [Piperine] | little or no |  | 
Cc1cc2nc3c(=O)[nH]c(=O)nc-3n(C[C@H](O)[C@H](O)[C@H](O)CO)c2cc1C [Riboflavin VB2, Riboflavin] |  | surprisingly high | 
CCCCOC(=O)CC(O)(CC(=O)OCCCC)C(=O)OCCCC [Tributyl citrate] | little or no | surprisingly high | 
CCCCOCc1ccc(O)c(OC)c1 [Vanillyl butyl ether] | little or no | surprisingly high | 
Vetiverol | little or no | surprisingly high | 
